This assay relates to severe persistent rash caused by poison ivy. The experiment in a line: Case 1: ointment test on sufferer. It is filed as in vivo, Human. Particulars: adult; prescribed by dermatologist. From the text:
They then sought out other sufferers on whom to test their ointment. The results follow:
Case 1: adult suffering from severe persistent rash caused by poison ivy. […] Application of ointment only once per day completely healed subject in 2½ days.

Structures are written as SMILES.

As for `CCCCC(=O)O[C@]1(C(=O)CO)[C@@H](C)C[C@H]2[C@@H]3CCC4=CC(=O)C=C[C@]4(C)[C@@]3(F)[C@@H](O)C[C@@]21C` [valisone], the “outcome of prescribed treatment” value is “without success”.

(Values after patent US6375942B1, “Skin healing ointment” (priority 1999, dated 2002).)
